Data published in patent publication US9585891B2 (MERCK PATENT GMBH, priority 2012, dated 2017).

target: T1, Human recombinant Vanin-1 (VNN1) (Homo sapiens, UniProt O95497); experiment: Vanin-1 enzymatic assay (fluorescence intensity, Pantothenate-AMC substrate); type: biochemical; details: purified recombinant human Vanin-1 0.5 nM; 30 min preincubation at 30° C.; Pantothenate-AMC 30 μM, 60 min
T1 construct: purchased Sino Biological Inc. 11662-H08H
T1 sequence (O95497 22-491): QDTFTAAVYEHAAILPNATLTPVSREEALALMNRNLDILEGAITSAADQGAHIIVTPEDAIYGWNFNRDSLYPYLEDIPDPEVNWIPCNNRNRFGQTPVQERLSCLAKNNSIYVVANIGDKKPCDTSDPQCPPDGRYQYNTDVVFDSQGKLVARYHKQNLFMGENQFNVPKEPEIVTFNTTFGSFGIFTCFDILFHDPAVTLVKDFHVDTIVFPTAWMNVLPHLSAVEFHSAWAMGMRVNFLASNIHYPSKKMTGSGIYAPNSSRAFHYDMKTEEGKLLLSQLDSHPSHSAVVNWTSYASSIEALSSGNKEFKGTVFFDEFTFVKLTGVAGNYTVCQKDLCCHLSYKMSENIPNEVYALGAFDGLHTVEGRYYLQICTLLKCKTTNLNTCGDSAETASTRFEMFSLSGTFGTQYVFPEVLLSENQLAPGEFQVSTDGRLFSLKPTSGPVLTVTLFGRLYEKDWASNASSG
Procedure: Human recombinant Vanin-1 (VNN1) was purchased from Sino Biological Inc. (Catalog Number: 11662-H08H).
Measurement of VNN1 inhibition is performed in 384-well format based on fluorescence intensity assay. Purified recombinant human Vanin-1 (0.5 nM) and threefold serial diluted compounds in 3% DMSO (range of concentrations from 30 μM to 1.524 nM) or controls (3.0% DMSO) are incubated for 30 minutes at 30° C. with gentle agitation in assay buffer containing 100 mM potassium Phosphate Buffer (KPi), pH 7.5, 0.001% Bovine Serum Albumin (BSA), 0.5 mM dithiothreitol (DTT) and 0.0025% Brij-35. The reaction is initiated by the addition of the fluorogenic substrate, Pantothenate-AMC, at a concentration of 30 μM. After 60 minutes of incubation at 30° C. with gentle agitation, fluorescence intensity is measured at λex=350 nm and λem=450 nm with a fluorescence reader (BMG PHERAstar reader or equivalent).

| IC50 | Structure (SMILES) |
| --- | --- |
| 5370 nM | CC(=O)CCNC(=O)[C@H](O)C(C)(C)CO [Example 1, (R)-2,4-Dihydroxy-3,3-dimethyl-N-(3-oxo-butyl)-butyramide] |
| 20500 nM | CCC(=O)CCNC(=O)[C@H](O)C(C)(C)CO [Example 2, (R)-2,4-Dihydroxy-3,3-dimethyl-N-(3-oxo-pentyl)-butyramide] |
| 90 nM | CC(C)(CO)[C@@H](O)C(=O)NCCC(=O)C(=O)NCCc1ccccc1 [Example 12, (R)-2,4-Dihydroxy-3,3-dimethyl-N-(3-oxo-3-phenethylcarbamoyl-propyl)-butyramide] |
| 460 nM | CC(C)(CO)[C@H](O)C(=O)NCCC(=O)C(=O)NCc1ccccc1 [Example 13, (S)—N-(3-Benzylcarbamoyl-3-oxo-propyl)-2,4-dihydroxy-3,3-dimethyl-butyramide] |
| 8320 nM | CC(C)(CO)[C@@H](O)C(=O)NCCC(=O)C(=O)Nc1ccccc1 [Example 16, (R)-2,4-Dihydroxy-3,3-dimethyl-N-(3-oxo-3-phenylcarbamoyl-propyl)-butyramide] |
| 3350 nM | CC(C)(CO)[C@@H](O)C(=O)NCCC(=O)C(=O)NC1CCCCC1 [Example 18, (R)—N-(3-Cyclohexylcarbamoyl-3-oxo-propyl)-2,4-dihydroxy-3,3-dimethyl butyramide] |
| 3030 nM | CC(NC(=O)C(=O)CCNC(=O)[C@H](O)C(C)(C)CO)c1ccccc1 (some centres unmarked) [Example 20] |
| 11500 nM | CC(C)(CO)[C@@H](O)C(=O)NCCC(=O)C(=O)NC(c1ccccc1)c1ccccc1 [Example 21, (R)—N-[3-(Benzhythyl-carbamoyl)-3-oxo-propyl]-2,4-dihydroxy-3,3-dimethyl-butyramide] |
| 2320 nM | COC(=O)CNC(=O)C(=O)CCNC(=O)[C@H](O)C(C)(C)CO [Example 25, [4-((R)-2,4-Dihydroxy-3,3-dimethyl-butyrylamino)-2-oxo-butyrylamino]-acetic acid methyl ester] |
| 9730 nM | CN(Cc1ccccc1)C(=O)C(=O)CCNC(=O)[C@H](O)C(C)(C)CO [Example 27] |
| 700 nM | CC(C)(CO)[C@@H](O)C(=O)NCCC(=O)C(=O)NCC1CCCO1 (stereo partly drawn) [Example 29, (R)-2,4-Dihydroxy-3,3-dimethyl-N-(3-oxo-3-[(tetrahydro-furan-2-ylmethyl)-carbamoyl]-propyl)-butyramide] |
| 30 nM | CC(C)(CO)[C@@H](O)C(=O)NCCC(=O)C(=O)NCCc1ccc(S(C)(=O)=O)cc1 [Example 30, (R)-2,4-Dihydroxy-N-{3-[2-(4-methanesulfonyl-phenyl)-ethylcarbamoyl]-3-oxo-propyl}-3,3-dimethyl-butyramide] |
| 20 nM | CC(C)(CO)[C@@H](O)C(=O)NCCC(=O)C(=O)NCC1CCN(S(=O)(=O)c2ccccc2)CC1 [Example 34, (R)—N-(3-[(1-Benzenesulfonyl-piperidin-4-ylmethyl)-carbamoyl]-3-oxo-propyl)-2,4-dihydroxy-3,3-dimethyl-butyramide] |
| 70 nM | CC(C)(CO)[C@@H](O)C(=O)NCCC(=O)C(=O)NCCCc1ccc(S(=O)(=O)N2CCCCC2)cc1 [Example 35, (R)-2,4-Dihydroxy-3,3-dimethyl-N-(3-oxo-3-{3-[4-(piperidine-1-sulfonyl)-phenyl]-propylcarbamoyl}-propyl)-butyramide] |
| 170 nM | CC(C)(CO)[C@@H](O)C(=O)NCCC(=O)C(=O)NCc1cccc(S(=O)(=O)N2CCCCC2)c1 [Example 36, (R)-2,4-Dihydroxy-3,3-dimethyl-N-{3-oxo-3-[3-(piperidine-1-sulfonyl)-benzylcarbamoyl}-propyl)-butyramide] |
| 10 nM | CC(C)(CO)[C@@H](O)C(=O)NCCC(=O)C(=O)NCc1ccc(Oc2ccncc2)cc1 [Example 37, (R)-2,4-Dihydroxy-3,3-dimethyl-N-{3-oxo-3-[4-(pyridin-4-yloxy)-benzylcarbamoyl]-propyl}-butyramide] |

| IC50 | Structure (SMILES) |
| --- | --- |
| < 10 nM | CC(C)(CO)[C@@H](O)C(=O)NCCC(=O)C(=O)NCC1CCN(S(=O)(=O)c2ccc(-c3ccccc3)cc2)CC1 [Example 38, (R)—N-(3-{[1-(Biphenyl-4-sulfonyl)-piperidin-4-ylmethyl]-carbamoyl}-3-oxo-propyl)-2,4-dihydroxy-3,3-dimethyl-butyramide] |
| 400 nM | CC(C)(CO)[C@@H](O)C(=O)NCCC(=O)C(=O)NCCCN1CCOCC1=O [Example 40, (R)-2,4-Dihydroxy-3,3-dimethyl-N-{3-oxo-3-[3-(3-oxo-morpholin-4-yl)-propylcarbamoyl}-propyl)butyramide] |
| 10 nM | CC(C)(CO)[C@@H](O)C(=O)NCCC(=O)C(=O)NCc1ccc(N2CCOCC2)cc1 [Example 41, (R)-2,4-Dihydroxy-3,3-dimethyl-N-[3-(4-morpholin-4-yl-benzylcarbamoyl)-3-oxo-propyl]-butyramide] |
| 340 nM | CC(C)(CO)[C@@H](O)C(=O)NCCC(=O)C(=O)NCCOc1ccccc1 [Example 42, (R)-2,4-Dihydroxy-3,3-dimethyl-N-[3-oxo-3-(2-phenoxy-ethylcarbamoyl)-propyl]-butyramide] |
| 12600 nM | CC(C)(CO)[C@@H](O)C(=O)NCCC(=O)C(=O)N1CCC(Nc2cccc(S(=O)(=O)C(F)(F)F)c2)CC1 [Example 43, (R)—N-{3,4-Dioxo-4-[4-(3-trifluoromethanesulfonyl-phenylamino)-piperidin-1-yl]-butyl}-2,4-dihydroxy-3,3-dimethyl-butyramide] |
| 50 nM | CC(C)(CO)[C@@H](O)C(=O)NCCC(=O)C(=O)NCc1ccc(OCCN2CCOCC2)cc1 [Example 44, (R)-2,4-Dihydroxy-3,3-dimethyl-N-(3-[4-(2-morpholin-4-yl-ethoxy)-benzylcarbamoyl]-3-oxo-propyl)-butyramide] |
| 20 nM | CCOC(=O)c1ccc(CNC(=O)C(=O)CCNC(=O)[C@H](O)C(C)(C)CO)cc1 [Example 45, 4-{[4-((R)-2,4-Dihydroxy-3,3-dimethyl-butyrylamino)-2-oxo-butyrylamino]-methyl}-benzoic acid ethyl ester] |
| < 10 nM | CC(C)(CO)[C@@H](O)C(=O)NCCC(=O)C(=O)NCC1CCN(S(=O)(=O)c2ccc(N3CCCC3=O)cc2)CC1 [Example 46, (R)-2,4-Dihydroxy-3,3-dimethyl-N-[3-oxo-3-({1-[4-(2-oxo-pyrrolidin-1-yl)-benzenesulfonyl]-piperidin-4-ylmethyl}-carbamoyl)-propyl]-butyramide] |
| 20 nM | CC(C)(CO)[C@@H](O)C(=O)NCCC(=O)C(=O)NCC1CCN(S(C)(=O)=O)CC1 [Example 47, (R)-2,4-Dihydroxy-N-(3-[(1-methanesulfonyl-piperidin-4-ylmethyl)-carbamoyl]-3-oxo-propyl)-3,3-dimethyl-butyramide] |
| 110 nM | CC(=O)N1CCC(CNC(=O)C(=O)CCNC(=O)[C@H](O)C(C)(C)CO)CC1 [Example 48, (R)—N-(3-[(1-Acetyl-piperidin-4-ylmethyl)-carbamoyl]-3-oxo-propyl)-2,4-dihydroxy-3,3-dimethyl-butyramide] |
| 23000 nM | CC(C)(CO)[C@@H](O)C(=O)NCCC(=O)C(=O)N1CCOCC1 [Example 49, (R)-2,4-Dihydroxy-3,3-dimethyl-N-(4-morpholin-4-yl-3,4-dioxo-butyl)-butyramide] |
| 30 nM | COCCOc1ccc(CNC(=O)C(=O)CCNC(=O)[C@H](O)C(C)(C)CO)cc1 [Example 50, (R)-2,4-Dihydroxy-N-(3-[4-(2-methoxy-ethoxy)-benzylcarbamoyl]-3-oxo-propyl)-3,3-dimethyl-butyramide] |
| 20 nM | CC(C)(CO)[C@@H](O)C(=O)NCCC(=O)C(=O)NCC1CCN(S(=O)(=O)c2cccc(F)c2)CC1 [Example 51, (R)—N-(3-{[1-(3-Fluoro-benzenesulfonyl)-piperidin-4-ylmethyl]-carbamoyl}-3-oxo-propyl)-2,4-dihydroxy-3,3-dimethyl-butyramide] |
| 50 nM | CC(C)(CO)[C@@H](O)C(=O)NCCC(=O)C(=O)NCC1CCN(S(=O)(=O)Cc2cccc(F)c2)CC1 [Example 52, (R)—N-(3-{[1-(3-Fluoro-phenylmethanesulfonyl)-piperidin-4-ylmethyl]-carbamoyl}-3-oxo-propyl)-2,4-dihydroxy-3,3-dimethyl-butyramide] |
| 10 nM | CC(C)(CO)[C@@H](O)C(=O)NCCC(=O)C(=O)NCc1ccc(-c2ccc(S(C)(=O)=O)cc2)cc1 [Example 53, (R)-2,4-Dihydroxy-N-{3-[(4′-methanesulfonyl-biphenyl-4-ylmethyl)-carbamoyl]-3-oxo-propyl}-3,3-dimethyl-butyramide] |
| 90 nM | CC(C)(CO)[C@@H](O)C(=O)NCCC(=O)C(=O)NCc1ccc(C(=O)O)cc1 [Example 54, 4-{[4-((R)-2,4-Dihydroxy-3,3-dimethyl-butrylamino)-2-oxo-butyrylamino]-methyl}-benzoic acid] |
